The melting point is the temperature, or range, at which the solid turns liquid. As a reminder, the pIC50 is the IC50 on a negative log10 scale, so that one unit is a factor of ten. Read a low pIC50 as a high IC50.

pIC50: −log10 of the molar value. Structures can show the parent of a compound that is named as a salt.

Data set [1] has as its system SKOV3: human ovarian carcinoma cell line. The data set is described as follows: Proliferation IC50 assay, oxic/hypoxic, SKOV3. It counts as cell-based. Particulars: Table 3; for pIC50: 4 h exposure under aerobic conditions; for HCR (hypoxic cytotoxicity ratio) SKOV3: IC50(aerobic)/IC10(hypoxic).
Data set [2] deals with HT29: human colon cancer cell line. The data set is described as follows: Proliferation IC50 assay, oxic/hypoxic, HT29. It counts as cell-based. Particulars: Table 3; for pIC50: 4 h exposure under aerobic conditions; for HCR (hypoxic cytotoxicity ratio) HT29: IC50(aerobic)/IC10(hypoxic).

In the case of `CN(C)CCOc1ccc2[nH]c(C(=O)N3CC(CCl)c4c3cc([N+](=O)[O-])c3cccc([N+](=O)[O-])c43)cc2c1` (stereo not drawn) (as salt: HCl) [Compound 52, 1-(Chloromethyl)-3-{5-[2-(dimethylamino)ethoxy]indol-2-carbonyl}-5,9-dinitro-1,2-dihydro-3H-benzo[e]indole], the melting point lay within 187 to 191 °C.
Same read-out and setting: the value for `CNS(=O)(=O)c1ccc2c3c(cc([N+](=O)[O-])c2c1)N(C(=O)c1cc2cc(OCCN(C)C)ccc2[nH]1)CC3CCl` (stereo not drawn) (as salt: HCl) [Compound 32, 1-(Chloromethyl)-3-{5-[2-(dimethylamino)ethoxy]indol-2-carbonyl}-N-methyl-5-nitro-1,2-dihydro-3H-benzo[e]indole-7-sulfonamide] was more than 350 °C.
For the compound `NS(=O)(=O)c1ccc2c3c(cc([N+](=O)[O-])c2c1)N(C(=O)c1cc2cc(OCCO)ccc2[nH]1)CC3CCl` (stereo not drawn), the melting point was 231 to 234 °C.
Take `CCC(=O)NS(=O)(=O)c1ccc2c3c(cc([N+](=O)[O-])c2c1)N(C(=O)c1cc2cc(OCCN(C)C)ccc2[nH]1)CC3CCl` (stereo not drawn): the melting point was 221 to 225 °C.
As for `NS(=O)(=O)c1ccc2c3c(cc([N+](=O)[O-])c2c1)N(C(=O)c1cc2cc(OCCOP(=O)(O)O)ccc2[nH]1)CC3CCl` (stereo not drawn), the melting point lay in the range of 207 to 211 °C.
As to `CNS(=O)(=O)c1ccc2c3c(cc([N+](=O)[O-])c2c1)N(C(=O)c1cc2cc(OCCN(C)C)ccc2[nH]1)CC3CCl` (stereo not drawn) [Compound 32, 1-(Chloromethyl)-3-{5-[2-(dimethylamino)ethoxy]indol-2-carbonyl}-N-methyl-5-nitro-1,2-dihydro-3H-benzo[e]indole-7-sulfonamide], the pIC50 in data set [1] (Homo sapiens, SK-OV-3) was 5.59; in data set [2] (Homo sapiens, HT-29) it was 5.57. For the same compound, in data set [1], the “HCR (hypoxic cytotoxicity ratio) SKOV3” value is recorded as 21. The “HCR (hypoxic cytotoxicity ratio) HT29” value in data set [2] came out at 24.
Take `CN(C)CCOc1ccc2[nH]c(C(=O)N3CC(CCl)c4c3cc([N+](=O)[O-])c3cc(C(=O)NCCO)ccc43)cc2c1` (stereo not drawn) (as salt: HCl) [Compound 19, 1-(Chloromethyl)-3-(5-[2-(dimethylamino)ethoxy]indol-2-carbonyl)-N-(2-hydroxyethyl)-5-nitro-1,2-dihydro-3H-benzo[e]indole-7-carboxamide]: the melting point is 231 to 233 °C (dec.).
For `CC(=O)c1cccc2c3c(cc([N+](=O)[O-])c12)N(C(=O)c1cc2cc(OCCN(C)C)ccc2[nH]1)CC3CCl` (stereo not drawn) [Compound 4], in data set [1], the pIC50 is 6.19 and the “HCR (hypoxic cytotoxicity ratio) SKOV3” value is reported as 12. In addition, in data set [2], the negative-log IC50 (pIC50) was 6.70 and the “HCR (hypoxic cytotoxicity ratio) HT29” value worked out at 5.2.
For the compound `CN(C)CCOc1ccc2[nH]c(C(=O)N3CC(CCl)c4c3cc([N+](=O)[O-])c3cc([N+](=O)[O-])ccc43)cc2c1` (stereo not drawn) [Compound 9, 1-(Chloromethyl)-3-{5-[2-(dimethylamino)ethoxy]indol-2-carbonyl}-5,7-dinitro-1,2-dihydro-3H-benzo[e]indole], the pIC50 in data set [1] (Homo sapiens, SK-OV-3) was 5.96; in data set [2] (Homo sapiens, HT-29), 6.05. Moreover, the “HCR (hypoxic cytotoxicity ratio) SKOV3” value in data set [1] turned out to be 9.3. For the same compound, the “HCR (hypoxic cytotoxicity ratio) HT29” value in data set [2] came out at 9.6.
For the compound `COc1cc2cc(C(=O)N3CC(CCl)c4c3cc([N+](=O)[O-])c3ccccc43)[nH]c2c(OC)c1OC` (stereo not drawn) [Compound R1, reference compound], the pIC50 in data set [1] (Homo sapiens, SK-OV-3) was 5.38; in data set [2] (Homo sapiens, HT-29), 5.47. Besides, the “HCR (hypoxic cytotoxicity ratio) SKOV3” value in data set [1] is given as 2.8. For the same compound, in data set [2], the “HCR (hypoxic cytotoxicity ratio) HT29” value is listed as 2.5.
`CN(C)CCOc1ccc2[nH]c(C(=O)N3CC(CCl)c4c3cc([N+](=O)[O-])c3cc(S(C)(=O)=O)ccc43)cc2c1` (stereo not drawn) (as salt: HCl) [Compound 24, 1-(Chloromethyl)-3-{5-[2-(dimethylamino)ethoxy]indol-2-carbonyl}-7-(methylsulfonyl)-5-nitro-1,2-dihydro-3H-benzo[e]indole] returned a melting point of 250 to 252 °C.
Still for that read-out and setting: for `CN(C)CCOc1ccc2[nH]c(C(=O)N3CC(CCl)c4c3cc([N+](=O)[O-])c3ccc(C(N)=O)cc43)cc2c1` (stereo not drawn) (as salt: TFA) [Compound 43, 1-(Chloromethyl)-3-{5-[2-(dimethylamino)ethoxy]indol-2-carbonyl}-5-nitro-1,2-dihydro-3H-benzo[e]indole-8-carboxamide] the value was more than 320 °C; for `CN(C)CCOc1ccc2[nH]c(C(=O)N3CC(CCl)c4c3cc([N+](=O)[O-])c3cc(S(N)(=O)=O)ccc43)cc2c1` (stereo not drawn) (as salt: HCl) [Compound 26, 1-(Chloromethyl)-3-{5-[2-(dimethylamino)ethoxy]indol-2-carbonyl}-5-nitro-1,2-dihydro-3H-benzo[e]indole-7-sulfonamide], more than 350 °C.
Take `COc1cc2cc(C(=O)N3CC(CCl)c4c3cc([N+](=O)[O-])c3cc(C#N)ccc43)[nH]c2c(OC)c1OC` (stereo not drawn) [Compound 21]: in data set [1], the pIC50 was 5.19 and the “HCR (hypoxic cytotoxicity ratio) SKOV3” value is on record as 13. Besides, in data set [2], the pIC50 is 5.28 and the “HCR (hypoxic cytotoxicity ratio) HT29” value stood at 2.5.
As to `COc1cc2cc(C(=O)N3CC(CCl)c4c3cc([N+](=O)[O-])c3cc(S(N)(=O)=O)ccc43)[nH]c2c(OC)c1OC` (stereo not drawn) [Compound 25, 1-(Chloromethyl)-5-nitro-3-(5,6,7-trimethoxyindol-2-carbonyl)-1,2-dihydro-3H-benzo[e]indole-7-sulfonamide], the pIC50 in data set [1] (Homo sapiens, SK-OV-3) was 4.43; in data set [2] (Homo sapiens, HT-29), 4.37. Moreover, the “HCR (hypoxic cytotoxicity ratio) SKOV3” value in data set [1] is given as 10. The “HCR (hypoxic cytotoxicity ratio) HT29” value in data set [2] is 3.6.
For `COC(=O)c1ccc2c([N+](=O)[O-])cc3c(c2c1)C(CCl)CN3C(=O)c1cc2cc(OCCN(C)C)ccc2[nH]1` (stereo not drawn) [Compound 42, Methyl 1-(chloromethyl)-3-{5-[2-(dimethylamino)ethoxy]indol-2-carbonyl}-5-nitro-1,2-dihydro-3H-benzo[e]indole-8-carboxylate], in that order: 6.28, 6.26, 2.4 and 1.6.
Consider `CN(C)CCOc1ccc2[nH]c(C(=O)N3CC(CCl)c4c3cc([N+](=O)[O-])c3c([N+](=O)[O-])cccc43)cc2c1` (stereo not drawn) (as salt: HCl) [Compound 2, 1-(Chloromethyl)-3-(5-[2-(dimethylamino)ethoxy]indol-2-carbonyl)-5,6-dinitro-1,2-dihydro-3H-benzo[e]indole], for which the melting point is 225 to 226 °C.
`CN(C)CCOc1ccc2[nH]c(C(=O)N3CC(CCl)c4c3cc([N+](=O)[O-])c3cc(S(=O)(=O)NN)ccc43)cc2c1.Cl.Cl` (stereo not drawn) [Compound 31, 1-(Chloromethyl)-3-{5-[2-(dimethylamino)ethoxy]indol-2-carbonyl}-5-nitro-1,2-dihydro-3H-benzo[e]indole-7-sulfonohydrazide dihydrochloride]: the pIC50 in data set [1] (Homo sapiens, SK-OV-3) was 4.48; in data set [2] (Homo sapiens, HT-29) it was 4.51. In addition, in data set [1], the “HCR (hypoxic cytotoxicity ratio) SKOV3” value was found to be 160. Further, the “HCR (hypoxic cytotoxicity ratio) HT29” value in data set [2] is listed as 220.
As to `CN(C)CCOc1ccc2[nH]c(C(=O)N3CC(CCl)c4c3cc([N+](=O)[O-])c3cc(S(=O)(=O)N(C)C)ccc43)cc2c1` (stereo not drawn) (as salt: HCl) [Compound 38, 1-(Chloromethyl)-3-{5-[2-(dimethylamino)ethoxy]indol-2-carbonyl}-N,N-dimethyl-5-nitro-1,2-dihydro-3H-benzo[e]indole-7-sulfonamide], the melting point was more than 350 °C.
Regarding `CN(C)CCOc1ccc2[nH]c(C(=O)N3CC(CCl)c4c3cc([N+](=O)[O-])c3cc(C(=O)NCCO)ccc43)cc2c1` (stereo not drawn) [Compound 19, 1-(Chloromethyl)-3-(5-[2-(dimethylamino)ethoxy]indol-2-carbonyl)-N-(2-hydroxyethyl)-5-nitro-1,2-dihydro-3H-benzo[e]indole-7-carboxamide], the pIC50 in data set [1] (Homo sapiens, SK-OV-3) was 5.05; in data set [2] (Homo sapiens, HT-29) it was 4.92. The “HCR (hypoxic cytotoxicity ratio) SKOV3” value in data set [1] came out at 160. Also, the “HCR (hypoxic cytotoxicity ratio) HT29” value in data set [2] is recorded as 490.
Turning to `COc1cc2cc(C(=O)N3CC(CCl)c4c3cc([N+](=O)[O-])c3ccc(C(=O)NCCN(C)C)cc43)[nH]c2c(OC)c1OC` (stereo not drawn) [Compound 44, 1-(Chloromethyl)-N-[2-(dimethylamino)ethyl]-5-nitro-3-(5,6,7-trimethoxyindol-2-carbonyl)-1,2-dihydro-3H-benzo[e]indole-8-carboxamide], the pIC50 was 5.60 in data set [1] (Homo sapiens, SK-OV-3) and 5.89 in data set [2] (Homo sapiens, HT-29). In addition, the “HCR (hypoxic cytotoxicity ratio) SKOV3” value in data set [1] is reported as 16. Moreover, in data set [2], the “HCR (hypoxic cytotoxicity ratio) HT29” value was determined as 2.4.
For the compound `COc1cc2cc(C(=O)N3CC(CCl)c4c3cc([N+](=O)[O-])c3cc(S(=O)(=O)NCCOP(=O)(O)O)ccc43)[nH]c2c(OC)c1OC` (stereo not drawn), the melting point lay in the range of 228 to 232 °C.
Take `CN(C)CCOc1ccc2[nH]c(C(=O)N3CC(CCl)c4c3cc([N+](=O)[O-])c3cc(S(=O)(=O)NO)ccc43)cc2c1.Cl` (stereo not drawn) [Compound 30, 1-(Chloromethyl)-3-{5-[2-(dimethylamino)ethoxy]indol-2-carbonyl}-N-hydroxy-5-nitro-4,2-dihydro-3H-benzo[e]indole-7-sulfonamide hydrochloride]: in data set [1], the pIC50 is 4.62 and the “HCR (hypoxic cytotoxicity ratio) SKOV3” value is recorded as 55. In addition, in data set [2], the pIC50 was 4.62 and the “HCR (hypoxic cytotoxicity ratio) HT29” value is on record as 160.
For `CN(C)CCOc1ccc2[nH]c(C(=O)N3CC(CCl)c4c3cc([N+](=O)[O-])c3cc(S(=O)(=O)N(C)C)ccc43)cc2c1` (stereo not drawn) [Compound 38, 1-(Chloromethyl)-3-{5-[2-(dimethylamino)ethoxy]indol-2-carbonyl}-N,N-dimethyl-5-nitro-1,2-dihydro-3H-benzo[e]indole-7-sulfonamide], the pIC50 in data set [1] (Homo sapiens, SK-OV-3) is 6.30; in data set [2] (Homo sapiens, HT-29), 5.96. The “HCR (hypoxic cytotoxicity ratio) SKOV3” value in data set [1] was determined as 2.4. For the same compound, the “HCR (hypoxic cytotoxicity ratio) HT29” value in data set [2] worked out at 3.6.
Turning to `COc1cc2cc(C(=O)N3CC(CCl)c4c3cc([N+](=O)[O-])c3cccc([N+](=O)[O-])c43)[nH]c2c(OC)c1OC` (stereo not drawn) [Compound 51, 1-(Chloromethyl)-5,9-dinitro-(5,6,7-trimethoxyindol-2-carbonyl)-1,2-dihydro-3H-benzo[e]indole], the negative-log IC50 (pIC50) was 4.26 in data set [1] and 4.47 in data set [2]. In data set [2], the “HCR (hypoxic cytotoxicity ratio) HT29” value was 1.2.

(Values after patent US7718688B2, “Nitrobenzindoles and their use in cancer therapy” (Auckland Uniservices Limited, priority 2004, dated 2010).)
